From article PMC12310023 (PLOS Neglected Tropical Diseases, 2025)
Where two headings read alike, the source gives them in different places.

Tests used:
CYP3A12 = test: CYP Induction Assay in dog hepatocytes; settings: 30 and 100 μM, 48 h
[1] = Liver microsome stability; settings: rat, pooled liver microsomes
Salmonella bacteria = test: microAmes (μAmes) test
[2] = Liver microsome stability; settings: human, pooled liver microsomes
Hepatocyte stability [3] = settings: monkey
[4] = tested on: C. parvum Bunch Grass Farms isolate; test: Calibr high-content imaging Cryptosporidium panel; type: cell-based, Cryptosporidium parvum; settings: Cryptosporidium parvum
Hepatocyte stability [5] = settings: rat
[6] = Dog PK (r10 PO 1, r11 IV 1, r12-r14 PO 3, 10, 30 mg/kg); type: in vivo; settings: after BKI-1708 PO 1 mg/kg
NLuc C. parvum = NLuc C. parvum growth in HCT-8 cells (UW); type: cell-based; settings: Cryptosporidium parvum
CYP1A2 [7] = target: T1, CYP1A2 (Homo sapiens, UniProt P05177); test: in vitro; settings: recombinant CYP1A2 supersomes
T1 sequence (P05177 1-516): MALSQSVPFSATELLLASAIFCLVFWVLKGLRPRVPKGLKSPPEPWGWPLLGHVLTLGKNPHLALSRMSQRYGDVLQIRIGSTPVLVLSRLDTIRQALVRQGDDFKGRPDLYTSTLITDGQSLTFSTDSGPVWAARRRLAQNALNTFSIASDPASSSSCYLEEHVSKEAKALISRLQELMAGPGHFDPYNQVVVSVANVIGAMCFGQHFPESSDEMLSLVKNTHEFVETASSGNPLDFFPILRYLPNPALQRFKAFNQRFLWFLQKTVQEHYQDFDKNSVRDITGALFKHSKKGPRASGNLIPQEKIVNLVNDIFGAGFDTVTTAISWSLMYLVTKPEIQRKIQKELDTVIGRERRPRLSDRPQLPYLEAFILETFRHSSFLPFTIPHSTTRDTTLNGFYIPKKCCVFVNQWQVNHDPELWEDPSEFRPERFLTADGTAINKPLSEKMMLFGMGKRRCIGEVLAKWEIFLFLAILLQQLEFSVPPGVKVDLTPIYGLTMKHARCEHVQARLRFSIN

[8] = Plasma protein binding, equilibrium dialysis; settings: mouse
CYP1A2 [9] = target: T1, CYP1A2; test: CYP reaction phenotyping, recombinant supersomes
[10] = Liver microsome stability; settings: mouse, pooled liver microsomes
NLuc C. parvum (Calibr) = test: Calibr panel, UA Nanoluc C. parvum count; type: cell-based; settings: Cryptosporidium parvum
A3 = target: T2, A3 (Homo sapiens, UniProt P0DMS8); test: Cerep binding assay; set-up: Cerep (Eurofins, France); settings: agonist radioligand, mean, read-out: % inhibition of control specific binding
T2 sequence (P0DMS8 1-318): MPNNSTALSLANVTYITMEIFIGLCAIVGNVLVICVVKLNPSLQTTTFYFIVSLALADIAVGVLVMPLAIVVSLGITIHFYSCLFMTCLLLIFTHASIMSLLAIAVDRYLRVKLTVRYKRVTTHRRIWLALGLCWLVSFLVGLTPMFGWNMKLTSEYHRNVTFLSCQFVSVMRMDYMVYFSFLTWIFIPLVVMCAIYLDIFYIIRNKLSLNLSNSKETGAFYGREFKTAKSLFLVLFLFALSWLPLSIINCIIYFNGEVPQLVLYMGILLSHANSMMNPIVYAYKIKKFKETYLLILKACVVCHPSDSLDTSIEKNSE

Hepatocyte stability [11] = settings: mouse
[12] = liver microsomes and primary hepatocytes

With CC1(C)Cn2nc(-c3ccc4cc(OC5CC5)ccc4c3)c(C(N)=O)c2NC1O (stereo not shown) [M2] the “induction of CYP3A12” value (CYP3A12) was “not found to be inducers”, the CLint scaled [1] was less than 41.7 mL/min/kg and the half-life [1] was greater than 2 h. For the same compound, the microsomal CLint [1] was less than 23.1 µL/min/mg, the μAmes test result (Salmonella bacteria) was “negative” and the CLint scaled [2] was less than 25 mL/min/kg. For the same compound, the half-life [2] was greater than 2 h, the microsomal CLint [2] was less than 23.1 µL/min/mg and the “LM:hepatocyte CLint_scaled ratio” value (Hepatocyte stability [3]; [12]) was 5.5. The CLint scaled (Hepatocyte stability [3]; primary hepatocytes) was 10 mL/min/kg, the half-life (Hepatocyte stability [3]; primary hepatocytes) was 6.48 h and the hepatocyte CLint (Hepatocyte stability [3]; primary hepatocytes) was 3.6 µL/min/1e6 cells. It also gave an EC50 [4] of 320 nM, an EC90 [4] of 770 nM and an EC50 ([4]; read-out: Bunch Grass Farm C. parvum Count EC50, Crypto Panel 3 Replicate 1) of 388 nM. It also gave an EC50 ([4]; read-out: Bunch Grass Farm C. parvum Count EC50, Crypto Panel 3 Replicate 2) of 247 nM, an EC90 ([4]; read-out: Bunch Grass Farm C. parvum Count EC90, Replicate 1) of 966 nM and an EC90 ([4]; read-out: Bunch Grass Farm C. parvum Count EC90, Replicate 2) of 569 nM. For the same compound, the “LM:hepatocyte CLint_scaled ratio” value (Hepatocyte stability [5]; [12]) was less than 0.7, the CLint scaled (Hepatocyte stability [5]; primary hepatocytes) was 63.3 mL/min/kg and the half-life (Hepatocyte stability [5]; primary hepatocytes) was 1.75 h. The hepatocyte CLint (Hepatocyte stability [5]; primary hepatocytes) was 13.2 µL/min/1e6 cells, the “M2 AUC0-inf” value [6] was 196 ± 12 µmol·min/L and the EC50 (NLuc C. parvum) was 730 nM. It also gave a CLint scaled (CYP1A2 [7]) of 2.78 mL/min/kg, a half-life (CYP1A2 [7]) of 1 h and a fraction unbound [8] of 0.04. For the same compound, the “% contribution” value (CYP1A2 [9]) was 47.0%, the CLint (CYP1A2 [9]) was 0.115 µL/min/pmol and the CLint scaled [10] was 75 mL/min/kg. For the same compound, the half-life [10] was 1.97 h, the microsomal CLint [10] was 23.6 µL/min/mg and the EC50 (NLuc C. parvum (Calibr); Replicate 1, read-out: UA Nanoluc C. parvum Count EC50) was 468 nM. It also gave an EC90 (NLuc C. parvum (Calibr); Replicate 1, read-out: UA Nanoluc C. parvum Count EC90) of 1460 nM, an EC50 (NLuc C. parvum (Calibr); Replicate 2, read-out: UA Nanoluc C. parvum Count EC50) of 212 nM and an EC90 (NLuc C. parvum (Calibr); Replicate 2, read-out: UA Nanoluc C. parvum Count EC90) of 1010 nM. The EC50 (NLuc C. parvum (Calibr); read-out: EC50) was 340 nM, the EC90 (NLuc C. parvum (Calibr); read-out: EC90) was 1240 nM and the inhibition at 10 µM (A3) was 72.6%. The “LM:hepatocyte CLint_scaled ratio” value (Hepatocyte stability [11]; [12]) was 1.7, the CLint scaled (Hepatocyte stability [11]; primary hepatocytes) was 45 mL/min/kg and the half-life (Hepatocyte stability [11]; primary hepatocytes) was 4.37 h. For the same compound, the hepatocyte CLint (Hepatocyte stability [11]; primary hepatocytes) was 5.3 µL/min/1e6 cells.
